In one series the test system is human keratinocytes. Details: method as in PMID 33003569. To be noted: toxicity towards human keratinocytes ref 3; in µg/mL; cited from earlier work.
The conditions of series [1]: cited from earlier work.
The next series relates to S. aureus. Details: method as in PMID 20374251. The following applies: against S. aureus ref 5; cited from earlier work.
The subject of the next series is P. aeruginosa ATCC 9027. The format is cell-based, Pseudomonas aeruginosa. The following applies: ATCC 9027, 18 h. As for the experimental part:
(§1) The Acinetobacter baumannii ATCC BAA-1605, Enterococcus faecium ATCC 700221, Klebsiella aerogenes ATCC 13048, Klebsiella pneumoniae ATCC 700603, Pseudomonas aeruginosa ATCC 9027, Staphylococcus aureus ATCC 33591, Candida glabrata ATCC 15126 strains were acquired from the American Type Culture Collection (ATCC, Manassas, USA). All the strains were stored at −80 °C in Roti-Store cryo vials (Carl Roth GmbH, Germany) and before the tests were transferred into fresh Mueller–Hinton broth (MHB, Becton Dickinson, Poland) for bacteria or RPMI-1640 (Sigma-Aldrich, Germany) for fungi and incubated for 24 h at 37 °C. Then, the cultures were cultured on the Mueller–Hinton agar (BioMaxima, Poland) or Sabouraud dextrose agar (SDA, BioMaxima) plates, respectively, and incubated as just mentioned. For microbiological assays, a minimum of three to five well-isolated colonies of the same morphological type were carefully picked from the agar cultures. These colonies were transferred with sterile loop into fresh microbiological medium and incubated with shaking (100 rpm) at 37 °C until they reached logarithmic phase of growth. Cell densities for all assays were adjusted through spectrophotometric measurements (Multiskan GO Microplate Spectrophotometer, Thermo Fisher Scientific, Finland) at 600 and 530 nm for bacteria and fungi, respectively.
(§2) The MICs were determined by broth microdilution method according to the Clinical and Laboratory Standard Institute guidelines. For this purpose, initial inoculums of bacteria (5 × 10^5 CFU/mL) in MHB and yeasts (2 × 10^3 CFU/mL) in RPMI-1640 with 2% D-glucose were exposed to the ranging concentration of lipopeptides (1–512 μg/mL) and incubated at 37 °C for 18 h and 24 h, respectively. The experiments were conducted on 96-well microtiter polystyrene plates (Kartell, Italy). The growth was assessed visually after incubation and the MIC was assumed as the lowest peptide concentration at which a noticeable growth of microorganisms was inhibited. Benzalkonium chloride (Sigma-Aldrich, Germany) was used as reference compound. All experiments were conducted in triplicate.

In the next series the test system is E. faecium ATCC 700221. Format: cell-based, Enterococcus faecium. The following applies: ATCC 700221, 18 h. As for the experimental part: as §1, §2
A further series concerns C. glabrata ATCC 15126. The format is cell-based, Candida glabrata. To be noted: ATCC 15126, 24 h. On the procedure: as §1, §2
The test system of another series is K. aerogenes ATCC 13048. The format is cell-based, Klebsiella aerogenes. The following applies: ATCC 13048, 18 h. On the procedure:
as §1, §2

For series [2], the system named is A. baumannii ATCC BAA 1605. Format: cell-based, Acinetobacter baumannii. To be noted: ATCC BAA 1605, 18 h. As for the experimental part:
as §1, §2

Series [3] deals with human red blood cells (RBCs). The format is cell-based. To be noted: red cells of human. On the procedure:
The hemolysis assay was conducted using a procedure described previously. For this purpose, human red blood cells (RBCs) isolated from K2EDTA Single Donor Human Whole blood (Innovative Research, Inc, MI, USA) were rinsed with Phosphate-buffer saline (PBS, pH 7.4±0.05, composition - KCl 2.7 mM, NaCl 140 mM, phosphate 10mM; AppliChem GmbH, Germany) by centrifugation for 10 min at 800 × g. This process was repeated 3 times and the RBCs were resuspended in PBS. Then, the stock solution of RBCs was added to the serial dilution of lipopeptides on 96-well polystyrene plates to reach a final volume of 100 μL with a 4% concentration of erythrocytes (v/v) and a concentration range of 1-512 μg/mL of tested compounds. The control wells for 0% and 100% hemolysis consisted of RBCs suspended in PBS and 1% of Triton X-100 (Sigma-Aldrich, Germany), respectively. Benzalkonium chloride (Sigma-Aldrich, Germany) was used as reference compound. Subsequently, the plates were incubated for 60 min at 37 °C and then centrifuged at 800 × g for 10 min at 4 °C (Sorvall ST […] Centrifuge, Thermo Scientific). The supernatant was carefully […] to new microtiter plates. The release of hemoglobin was monitored absorbance measurements at 540 nm (MultiskanTM GO Microplate Spectrophotometer, Thermo Scientific). All experiments were conducted in triplicate. HC50 was calculated using an ic50.tk tool.

The next series has as its system S. aureus ATCC 33591. The format is cell-based, Staphylococcus aureus. The following applies: ATCC 33591, 18 h. As for the experimental part:
as §1, §2

Series [4] concerns human keratinocyte cell line (HaCaT). The format is cell-based. To be noted: 24 h. On the procedure:
The immortalized human keratinocyte cell line (HaCaT), obtained from CLS (Cell Line Service, Germany) was cultured in DMEM-high glucose (Dulbecco’s Modified Eagle Medium) supplemented with 10% fetal bovine serum, 2 mM L-glutamine, 100 U/mL penicillin and 100 μg/mL streptomycin (Sigma-Aldrich; Merck KGaA) at 37 °C in a humidified atmosphere with 5% CO2. Cells were trypsinized, and the medium was renewed 2–3 times per week. The cytotoxicity of compounds was assessed by colorimetric CellTilter 96® Aqueous One Solution Cell Proliferation Assay (Promega, USA), containing a tetrazolium compound according to the manufacturer’s instructions. In brief, 7 × 10^3 HaCaT cells per well were plated on 96-well plates and incubated per night to adhere to the cultured dishes. After that time, different concentrations of the tested compounds ranging from 512 to 1 μg/mL were applied to the wells. Every compound was medium-soluble at 37 °C; thus, the non-treated cells were negative control. Serial dilutions of the tested compounds were always prepared before use. Cells were incubated with drugs for 24 h, and then, 20 μL of the CellTiter 96®AqueousOne Solution Reagent was added to each well containing treated cells in 100 µl of culture medium. After 4 h of incubation at 37 °C, the absorbance at 490 nm was recorded using a microplate reader (Epoch, BioTek Instruments, USA). The quantity of formazan product as measured by the amount of 490 nm absorbance is directly proportional to the number of living cells in culture. Benzalkonium chloride (Sigma-Aldrich, Germany) was used as reference compound. At least three independent experiments with two replicates were conducted for each concentration of a compound, and the IC50 values were calculated using GraphPad Prism 8 software.

In series [5] the test system is K. pneumoniae ATCC 700603. Format: cell-based, Klebsiella pneumoniae. To be noted: ATCC 700603, 18 h. As for the experimental part:
as §1, §2

In brackets after ≈: the same amount, converted by molar mass. Where a SMILES comes first, the peptide text is derived from it. [ ]: non-standard residue; d: D form. The star is where a group is joined. Lys(Me3) = C[N+](C)(C)CCCC[C@H](N)C(=O)O; Myristoyl = CCCCCCCCCCCCCC(=O)* A value given as a limit tells only on which side of the number the result lay.

On to C16-CRRKKC-NH2, for which, in the series with human keratinocytes, the IC50 is on record as 21.3 ± 8.2.

`C[N+](C)(C)CC(=O)O` [betaine, N,N,N-trimethylglycine]: in series [1], the solubility in water was 611 mg/mL.

On to C12-Orn-Orn-Trp-Trp-NH2, for which, in the series with S. aureus, the MIC (commonly the lowest concentration that inhibits growth of the organism) is 0.95 to 1.95 µg/mL.

Turning to C16-RRKK-NH2 [Peptide C16-RRKK-NH2], the IC50 in the series on human keratinocytes is on record as 8.1 ± 1.1.

For `CCCCCCCCCCCCCC(=O)N[C@@H](CCCC[N+](C)(C)C)C(=O)N[C@@H](CCCC[N+](C)(C)C)C(=O)N[C@@H](CCCC[N+](C)(C)C)C(N)=O` [Peptide 3Mq, C14-K(Me3)^+K(Me3)^+K(Me3)^+-NH2], the MIC against P. aeruginosa ATCC 9027 is recorded as over 512 µg/mL; with E. faecium ATCC 700221 it was 256 µg/mL; against C. glabrata ATCC 15126, over 512 µg/mL; in the series with K. aerogenes ATCC 13048, over 512 µg/mL; in series [2] it was over 512 µg/mL; against S. aureus ATCC 33591, over 512 µg/mL. In series [5], this compound registered an MIC of over 512 µg/mL. For the same compound, the HC50 (commonly the concentration that lyses half of the red blood cells) in [3] is over 512 µg/mL. The compound further showed an IC50 in [4] of over 512 µg/mL.

For the compound `CCCCCCCCCCCCCC(=O)N[C@@H](CCCC[N+](C)(C)C)C(=O)N[C@@H](CCCC[N+](C)(C)C)C(=O)N[C@@H](CCCC[N+](C)(C)C)C(=O)N[C@@H](CCCC[N+](C)(C)C)C(N)=O` [Peptide 4Mq, C14-K(Me3)^+K(Me3)^+K(Me3)^+K(Me3)^+-NH2] (Myristoyl-[Lys(Me3)][Lys(Me3)][Lys(Me3)][Lys(Me3)]-NH2), the MIC in the series on P. aeruginosa ATCC 9027 is listed as over 512 µg/mL; in the series with E. faecium ATCC 700221, 128 µg/mL; with C. glabrata ATCC 15126, over 512 µg/mL; in the series on K. aerogenes ATCC 13048 it was over 512 µg/mL; in series [2], over 512 µg/mL; against S. aureus ATCC 33591, over 512 µg/mL. In series [5], this compound gave an MIC of over 512 µg/mL. Moreover, the concentration for 50% haemolysis (HC50) in series [3] is on record as over 512 µg/mL. Also, the IC50 in series [4] is reported as over 512 µg/mL.

With `CCCCCCCCCCCCCCCC(=O)N[C@@H](CCCC[N+](C)(C)C)C(N)=O` [Peptide 1Pq, C16-K(Me3)^+-NH2], the MIC is over 512 µg/mL in the series with P. aeruginosa ATCC 9027; 16 µg/mL with E. faecium ATCC 700221; 8 µg/mL in the series with C. glabrata ATCC 15126; 256 µg/mL in the series on K. aerogenes ATCC 13048; 64 µg/mL in series [2]; 16 µg/mL with S. aureus ATCC 33591. Further, the MIC in series [5] is given as 512 µg/mL. For the same compound, in series [3], the HC50 was 32.21 ± 1.97 µg/mL. For the same compound, the IC50 in series [4] amounted to 19.25 ± 9.34 µg/mL.

Take `CCCCCCCCCCCCCC(=O)N[C@@H](CCCCN)C(=O)N[C@@H](CCCCN)C(=O)N[C@@H](CCCCN)C(N)=O` [Peptide 3M, C14-KKK-NH2]: the MIC with P. aeruginosa ATCC 9027 was determined as 128 µg/mL (≈ 209 µM); in the series with E. faecium ATCC 700221 it was 32 µg/mL (≈ 52.3 µM); against C. glabrata ATCC 15126, 512 µg/mL (≈ 837 µM); with K. aerogenes ATCC 13048, 256 µg/mL (≈ 418 µM); in series [2] it was 512 µg/mL (≈ 837 µM); in the series with S. aureus ATCC 33591, 64 µg/mL (≈ 105 µM). For the same compound, the MIC in [5] is over 512 µg/mL. The HC50 in [3] is on record as over 512 µg/mL. The compound further gave an IC50 in series [4] of 237.60 ± 31.18 µg/mL (≈ 388 µM).

Take `CCCCCCCCCCCCCC(=O)N[C@@H](CCCC[N+](C)(C)C)C(N)=O` [Peptide 1Mq, C14-K(Me3)^+-NH2]: the MIC is on record as 128 µg/mL in the series with P. aeruginosa ATCC 9027; 32 µg/mL against E. faecium ATCC 700221; 32 µg/mL against C. glabrata ATCC 15126; 256 µg/mL against K. aerogenes ATCC 13048; 128 µg/mL in series [2]; 32 µg/mL in the series on S. aureus ATCC 33591. Further, in [5], the minimum inhibitory concentration (MIC) is over 512 µg/mL. The same compound had an HC50 in series [3] of 88.25 ± 1.57 µg/mL. Further, in [4], the IC50 amounted to 24.81 ± 3.88 µg/mL.

These data come from article PMC10687119, “Quaternary Ammonium Salts of Cationic Lipopeptides with Lysine Residues — Synthesis, Antimicrobial, Hemolytic and Cytotoxic Activities” (Probiotics and Antimicrobial Proteins, 2023).
